From paper PMC7756341, “Liposomal FRET Assay Identifies Potent Drug‐Like Inhibitors of the Ceramide Transport Protein (CERT)” (Chemistry (Weinheim an Der Bergstrasse, Germany), 2020)
Where “and” joins values, the source holds several entries; their conditions need not be identical. Equal values may be shown once.

System: HeLa cells
Assay: Sphingolipid content of treated HeLa cells by quantitative mass spectrometry
Type: cell-based
Conditions: HeLa, 42h, single replicates; for Cer16 / Cer18 / Cer20 / Cer22 / Cer24 / Cer24:1 / Cer total / S1P / SM16 / SM18 / SM20 / SM22 / SM24 / SM24:1 / SM total / Sph: 500.000 cells per sample
Method: 5.2 Cellular experiment for lipidomic analysis
Hela cells were cultured in six well plates (177000 cells per well) under standard growth conditions (DMEM with 4mM L-glutamine, 10% FBS, 1% Penicillin-Streptomycin; CO2 incubator with […]
37°C, 5% CO2). […]
After incubation, […]
the adherent cells were washed twice with ice-cold PBS and harvested by treatment with trypsin.
Cells were counted using a Countess II cell counter ( Invitrogen) and adjusted to 500.000 cells per sample. Each sample was then treated as described below.
6. Details for experimental lipidomics
Cells were subjected to lipid extraction using 1.5 mL methanol/chloroform (2:1, v:v) as described. The extraction solvent contained C17-ceramide (Cer17) and C16 -d31-sphingomyelin (d31-SM16) (both Avanti Polar Lipids, Alabaster, USA) as internal standards. Chromatographic separations were achieved on a 1260 Infinity HPLC (Agilent Technologies, Waldbronn, Germany) equipped with a Poroshell 120 EC-C8 column (3.0 × 150 mm, 2.7 µm; Agilent Technologies). A mobile phase system consisting of water (solvent A) and acetonitrile/methanol (1:1, v:v; solvent B), both acidified with 0.1% formic acid, was used for gradient elution at an initial composition of 40:60 (A:B, v:v) and a flow rate of 0.5 mL/min. MS/MS analyses were carried out using a 6490 triple-quadrupole mass spectrometer (Agilent Technologies) operating in the positive electrospray ionization mode (ESI+). The following ion source parameters were set: sheath gas temperature, 375 °C; sheath gas flow, 12 L/min of nitrogen; nebulizer pressure, 30 psi; drying gas temperature, 200 °C; drying gas flow, 15 L/min of nitrogen; capillary voltage, 4000 V; nozzle voltage, 1500 V; iFunnel high pressure RF voltage, 150 V and iFunnel low pressure RF voltage, 60 V. The following mass transitions were recorded (collision energies of 25 eV for all transitions): ceramides: m/z […]
with MassHunter Software (Agilent Technologies). Significance of differences between two samples was calculated by student’s t -test. Asterisks indicate significant differences between treated and untreated samples: * p<0.05; ** p<0.01; *** p<0.005.
Table S1. Sphingolipid content of treated cells.
(1 picture or pasted object on this page, not shown here)

CCCCCCCCCCCC(=O)NC(CO)CC(O)c1ccccc1 (stereo not drawn) [HPA-12, N-(3Hydroxy-1-hydroxymethyl-3-phenylpropyl)-dodecamide]
Cer16 (1 µM): 48,20 pmol/sample and 45,94 pmol/sample and 44,92 pmol/sample
Cer18 (1 µM): 3,35 pmol/sample and 2,85 pmol/sample and 3,38 pmol/sample
Cer20 (1 µM): 1,15 pmol/sample and 0,88 pmol/sample and 1,18 pmol/sample
Cer22 (1 µM): 8,47 pmol/sample and 7,59 pmol/sample and 8,53 pmol/sample
Cer24 (1 µM): 25,47 pmol/sample and 26,70 pmol/sample and 25,58 pmol/sample
Cer24:1 (1 µM): 64,01 pmol/sample and 60,79 pmol/sample and 68,53 pmol/sample
Cer total (1 µM): 150,65 pmol/sample and 143,74 pmol/sample and 153,13 pmol/sample
S1P (1 µM): 1,34 pmol/sample and 1,27 pmol/sample and 1,52 pmol/sample
SM16 (1 µM): 1695,91 pmol/sample and 1668,53 pmol/sample and 1609,69 pmol/sample
SM18 (1 µM): 47,55 pmol/sample and 44,39 pmol/sample and 46,43 pmol/sample
SM20 (1 µM): 15,20 pmol/sample and 14,34 pmol/sample and 14,30 pmol/sample
SM22 (1 µM): 91,42 pmol/sample and 86,76 pmol/sample and 85,97 pmol/sample
SM24 (1 µM): 147,79 pmol/sample and 134,40 pmol/sample and 140,17 pmol/sample
SM24:1 (1 µM): 708,14 pmol/sample and 660,22 pmol/sample and 659,25 pmol/sample
SM total (1 µM): 2706,02 pmol/sample and 2608,64 pmol/sample and 2555,82 pmol/sample
Sph (1 µM): 3,87 pmol/sample and 3,57 pmol/sample and 3,94 pmol/sample
ratio total SM/Cer (1 µM): 17,7 and 17,3 and 17,8
Cer16 (2.5 µM): 45,72 pmol/sample and 45,34 pmol/sample and 45,94 pmol/sample
Cer18 (2.5 µM): 2,82 pmol/sample and 3,05 pmol/sample and 2,77 pmol/sample
Cer20 (2.5 µM): 0,99 pmol/sample and 0,90 pmol/sample and 0,94 pmol/sample
Cer22 (2.5 µM): 8,93 pmol/sample (2×) and 7,27 pmol/sample
Cer24 (2.5 µM): 29,39 pmol/sample and 22,20 pmol/sample and 31,70 pmol/sample
Cer24:1 (2.5 µM): 64,09 pmol/sample and 55,48 pmol/sample and 66,75 pmol/sample
Cer total (2.5 µM): 151,94 pmol/sample and 134,23 pmol/sample and 157,03 pmol/sample
S1P (2.5 µM): 1,60 pmol/sample and 1,73 pmol/sample and 1,58 pmol/sample
SM16 (2.5 µM): 1489,44 pmol/sample and 1440,97 pmol/sample and 1448,69 pmol/sample
SM18 (2.5 µM): 53,85 pmol/sample and 43,84 pmol/sample and 45,37 pmol/sample
SM20 (2.5 µM): 20,27 pmol/sample and 13,88 pmol/sample and 14,55 pmol/sample
SM22 (2.5 µM): 75,95 pmol/sample and 76,48 pmol/sample and 75,20 pmol/sample
SM24 (2.5 µM): 129,06 pmol/sample and 114,60 pmol/sample and 121,10 pmol/sample
SM24:1 (2.5 µM): 524,32 pmol/sample and 581,92 pmol/sample and 555,40 pmol/sample
SM total (2.5 µM): 2229,23 pmol/sample and 2350,50 pmol/sample and 2245,18 pmol/sample
Sph (2.5 µM): 2,13 pmol/sample and 3,27 pmol/sample and 2,40 pmol/sample
ratio total SM/Cer (2.5 µM): 14,2 and 15,5 and 16,7
Cer16 (5 µM): 43,83 pmol/sample and 46,26 pmol/sample and 43,34 pmol/sample
Cer18 (5 µM): 2,50 pmol/sample and 2,62 pmol/sample and 2,51 pmol/sample
Cer20 (5 µM): 0,74 pmol/sample and 0,81 pmol/sample and 0,73 pmol/sample
Cer22 (5 µM): 6,88 pmol/sample and 6,54 pmol/sample and 6,85 pmol/sample
Cer24 (5 µM): 20,93 pmol/sample and 21,64 pmol/sample and 23,60 pmol/sample
Cer24:1 (5 µM): 53,37 pmol/sample and 55,90 pmol/sample and 57,30 pmol/sample
Cer total (5 µM): 128,26 pmol/sample and 133,78 pmol/sample and 134,34 pmol/sample
S1P (5 µM): 1,43 pmol/sample and 1,97 pmol/sample and 1,45 pmol/sample
SM16 (5 µM): 1306,31 pmol/sample and 1249,58 pmol/sample and 1356,77 pmol/sample
SM18 (5 µM): 41,78 pmol/sample and 39,06 pmol/sample and 41,13 pmol/sample
SM20 (5 µM): 12,76 pmol/sample and 12,48 pmol/sample and 12,54 pmol/sample
SM22 (5 µM): 68,87 pmol/sample and 67,07 pmol/sample and 70,68 pmol/sample
SM24 (5 µM): 101,53 pmol/sample and 101,48 pmol/sample and 113,95 pmol/sample
SM24:1 (5 µM): 471,40 pmol/sample and 487,46 pmol/sample and 521,22 pmol/sample
SM total (5 µM): 2002,66 pmol/sample and 1957,13 pmol/sample and 2116,29 pmol/sample
Sph (5 µM): 3,33 pmol/sample and 3,81 pmol/sample and 3,47 pmol/sample
ratio total SM/Cer (5 µM): 15,6 and 14,6 and 15,8
